Calls of active or inactive are those of the source.
What was measured:
HCT-116 [1] = assay: Induction of apoptosis in human HCT-116 cells assessed as modulation of TOP3B mRNA expression at 10 to 500 nM incubated for 6 to 48 hrs by RNA analysis; assay type: functional, cell-based; settings: dose 10-500 nM, time 6-48 hrs
HCT-116 [2] = assay: Induction of apoptosis in human HCT-116 cells assessed as modulation of DDX18 mRNA expression at 10 to 500 nM incubated for 6 to 48 hrs by RNA analysis; assay type: functional, cell-based; settings: dose 10-500 nM, time 6-48 hrs
HCT-116 [3] = assay: Induction of apoptosis in human HCT-116 cells assessed as modulation of DDX19B mRNA expression at 10 to 500 nM incubated for 6 to 48 hrs by RNA analysis; assay type: functional, cell-based; settings: dose 10-500 nM, time 6-48 hrs
HCT-116 [4] = assay: Induction of apoptosis in human HCT-116 cells assessed as modulation of DDX54 mRNA expression at 10 to 500 nM incubated for 6 to 48 hrs by RNA analysis; assay type: functional, cell-based; settings: dose 10-500 nM, time 6-48 hrs
HCT-116 [5] = assay: Induction of apoptosis in human HCT-116 cells assessed as upregulation of Bax mRNA expression at 10 to 500 nM incubated for 6 to 48 hrs by RNA analysis; assay type: functional, cell-based; settings: dose 10-500 nM, time 6-48 hrs
HCT-116 [6] = assay: Induction of apoptosis in human HCT-116 cells assessed as downregulation of BCL2 mRNA expression at 10 to 500 nM incubated for 6 to 48 hrs by RNA analysis; assay type: functional, cell-based; settings: dose 10-500 nM, time 6-48 hrs
HCT-116 [7] = assay: Induction of apoptosis in human HCT-116 cells assessed as downregulation of PRIM1 mRNA expression at 10 to 500 nM incubated for 6 to 48 hrs by RNA analysis; assay type: functional, cell-based; settings: dose 10-500 nM, time 6-48 hrs
HCT-116 [8] = assay: Induction of apoptosis in human HCT-116 cells assessed as downregulation of RFC3 mRNA expression at 10 to 500 nM incubated for 6 to 48 hrs by RNA analysis; assay type: functional, cell-based; settings: dose 10-500 nM, time 6-48 hrs
HCT-116 [9] = assay: Induction of apoptosis in human HCT-116 cells assessed as upregulation of ADA mRNA expression at 10 to 500 nM incubated for 6 to 48 hrs by RNA analysis; assay type: functional, cell-based; settings: dose 10-500 nM, time 6-48 hrs
HCT-116 [10] = assay: Activation of innate immune response in human HCT-116 cells assessed as upregulation of IL-1A gene expression at 10 to 500 nM incubated for 6 to 48 hrs by RNA analysis; assay type: functional, cell-based; settings: dose 10-500 nM, time 6-48 hrs
HCT-116 [11] = assay: Activation of innate immune response in human HCT-116 cells assessed as upregulation of IRF5 gene expression at 10 to 500 nM incubated for 6 to 48 hrs by RNA analysis; assay type: functional, cell-based; settings: dose 10-500 nM, time 6-48 hrs
HCT-116 [12] = assay: Induction of apoptosis in human HCT-116 cells assessed as downregulation of NDC1 gene expression at 10 to 500 nM incubated for 6 to 48 hrs by RNA analysis; assay type: functional, cell-based; settings: dose 10-500 nM, time 6-48 hrs
HCT-116 [13] = assay: Induction of apoptosis in human HCT-116 cells assessed as downregulation of NUP155 gene expression at 10 to 500 nM incubated for 6 to 48 hrs by RNA analysis; assay type: functional, cell-based; settings: dose 10-500 nM, time 6-48 hrs
HCT-116 [14] = assay: Induction of apoptosis in human HCT-116 cells assessed as downregulation of NUP43 gene expression at 10 to 500 nM incubated for 6 to 48 hrs by RNA analysis; assay type: functional, cell-based; settings: dose 10-500 nM, time 6-48 hrs
HCT-116 [15] = assay: Induction of apoptosis in human HCT-116 cells assessed as downregulation of NUP58 gene expression at 10 to 500 nM incubated for 6 to 48 hrs by RNA analysis; assay type: functional, cell-based; settings: dose 10-500 nM, time 6-48 hrs
HCT-116 [16] = assay: Induction of apoptosis in human HCT-116 cells assessed as downregulation of SEH1L gene expression at 10 to 500 nM incubated for 6 to 48 hrs by RNA analysis; assay type: functional, cell-based; settings: dose 10-500 nM, time 6-48 hrs
HCT-116 [17] = assay: Induction of apoptosis in human HCT-116 cells assessed as downregulation of NME4 gene expression at 10 to 500 nM incubated for 6 to 48 hrs by RNA analysis; assay type: functional, cell-based; settings: dose 10-500 nM, time 6-48 hrs
HCT-116 [18] = assay: Induction of apoptosis in human HCT-116 cells assessed as downregulation of NUDT1 gene expression at 10 to 500 nM incubated for 6 to 48 hrs by RNA analysis; assay type: functional, cell-based; settings: dose 10-500 nM, time 6-48 hrs
HCT-116 [19] = assay: Induction of apoptosis in human HCT-116 cells assessed as downregulation of ADSL gene expression at 10 to 500 nM incubated for 6 to 48 hrs by RNA analysis; assay type: functional, cell-based; settings: dose 10-500 nM, time 6-48 hrs
HCT-116 [20] = assay: Induction of apoptosis in human HCT-116 cells assessed as downregulation of DTYMK gene expression at 10 to 500 nM incubated for 6 to 48 hrs by RNA analysis; assay type: functional, cell-based; settings: dose 10-500 nM, time 6-48 hrs
HCT-116 [21] = assay: Induction of apoptosis in human HCT-116 cells assessed as downregulation of TXNRD1 gene expression at 10 to 500 nM incubated for 6 to 48 hrs by RNA analysis; assay type: functional, cell-based; settings: dose 10-500 nM, time 6-48 hrs
HCT-116 [22] = assay: Induction of apoptosis in human HCT-116 cells assessed as downregulation of UMPS gene expression at 10 to 500 nM incubated for 6 to 48 hrs by RNA analysis; assay type: functional, cell-based; settings: dose 10-500 nM, time 6-48 hrs
PDX14244 [23] = assay: Antitumor activity against human PDX14244 cells xenografted in SCID mouse model assessed as reduction in tumor volume at 2 mg/kg,po administrated once per week for 3 weeks; assay type: functional, organism-based
PDX14244 [24] = assay: Antitumor activity against human PDX14244 cells xenografted in SCID mouse model assessed as reduction in tumor volume at 8 mg/kg,po administrated once per week for 3 weeks; assay type: functional, organism-based
[25] = molecular target: T1, DNA topoisomerase 1 (Homo sapiens) (UniProt P11387); assay: Inhibition of topoisomerase 1 (unknown origin) assessed as relaxation of supercoiled plasmid pBR322 DNA at 25 to 100 uM incubated for 30 mins by ethidium bromide staining based agarose gel electrophoresis; settings: dose 25-100 µM
T1 sequence (whole entry): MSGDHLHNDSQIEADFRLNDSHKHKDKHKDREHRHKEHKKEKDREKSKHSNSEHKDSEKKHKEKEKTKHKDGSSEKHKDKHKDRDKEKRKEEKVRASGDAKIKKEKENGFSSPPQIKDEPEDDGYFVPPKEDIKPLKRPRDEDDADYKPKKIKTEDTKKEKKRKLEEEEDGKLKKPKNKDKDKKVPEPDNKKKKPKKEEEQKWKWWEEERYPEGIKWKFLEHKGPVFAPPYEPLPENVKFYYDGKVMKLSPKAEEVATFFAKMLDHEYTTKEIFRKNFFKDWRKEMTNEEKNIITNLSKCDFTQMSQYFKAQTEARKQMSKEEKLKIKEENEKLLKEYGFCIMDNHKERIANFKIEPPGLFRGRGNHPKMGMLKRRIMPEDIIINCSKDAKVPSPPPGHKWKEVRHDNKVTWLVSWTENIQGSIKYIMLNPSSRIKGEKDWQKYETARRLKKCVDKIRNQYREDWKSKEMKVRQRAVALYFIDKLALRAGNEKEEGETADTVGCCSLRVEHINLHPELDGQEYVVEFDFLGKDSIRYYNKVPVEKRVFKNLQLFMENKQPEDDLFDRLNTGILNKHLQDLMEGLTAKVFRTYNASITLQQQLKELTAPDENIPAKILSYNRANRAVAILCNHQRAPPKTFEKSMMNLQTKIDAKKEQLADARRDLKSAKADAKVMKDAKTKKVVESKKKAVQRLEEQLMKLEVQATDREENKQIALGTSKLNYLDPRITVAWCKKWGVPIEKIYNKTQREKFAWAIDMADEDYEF

CC[C@@]1(O)C(=O)OCc2c1cc1n(c2=O)Cc2cc3cc4c(cc3nc2-1)OCO4
active: Activity (HCT-116 [1]) | Activity (HCT-116 [2]) | Activity (HCT-116 [3]) | Activity (HCT-116 [4]) | Activity (HCT-116 [5]) | Activity (HCT-116 [6]) | Activity (HCT-116 [7]) | Activity (HCT-116 [8]) | Activity (HCT-116 [9]) | Activity (HCT-116 [10]) | Activity (HCT-116 [11]) | Activity (HCT-116 [12]) | Activity (HCT-116 [13]) | Activity (HCT-116 [14]) | Activity (HCT-116 [15]) | Activity (HCT-116 [16]) | Activity (HCT-116 [17]) | Activity (HCT-116 [18]) | Activity (HCT-116 [19]) | Activity (HCT-116 [20]) | Activity (HCT-116 [21]) | Activity (HCT-116 [22])

CC[C@@]1(O)C(=O)OCc2c1cc1n(c2=O)Cc2c-1nc1cc3c(cc1c2-c1ccc(OC)cc1)OCO3
active: Activity (PDX14244 [23]) | Activity (PDX14244 [24]) | Topoisomerase 1 inhibition [25] | Activity (HCT-116 [1]) | Activity (HCT-116 [2]) | Activity (HCT-116 [3]) | Activity (HCT-116 [4]) | Activity (HCT-116 [5]) | Activity (HCT-116 [6]) | Activity (HCT-116 [7]) | Activity (HCT-116 [8]) | Activity (HCT-116 [9]) | Activity (HCT-116 [10]) | Activity (HCT-116 [11]) | Activity (HCT-116 [12]) | Activity (HCT-116 [13]) | Activity (HCT-116 [14]) | Activity (HCT-116 [15]) | Activity (HCT-116 [16]) | Activity (HCT-116 [17]) | Activity (HCT-116 [18]) | Activity (HCT-116 [19]) | Activity (HCT-116 [20]) | Activity (HCT-116 [21]) | Activity (HCT-116 [22])

CCc1ccc(-c2c3c(nc4cc5c(cc24)OCO5)-c2cc4c(c(=O)n2C3)COC(=O)[C@]4(O)CC)cc1
active: Activity (PDX14244 [23]) | Activity (PDX14244 [24]) | Topoisomerase 1 inhibition [25] | Activity (HCT-116 [1]) | Activity (HCT-116 [2]) | Activity (HCT-116 [3]) | Activity (HCT-116 [4]) | Activity (HCT-116 [5]) | Activity (HCT-116 [6]) | Activity (HCT-116 [7]) | Activity (HCT-116 [8]) | Activity (HCT-116 [9]) | Activity (HCT-116 [10]) | Activity (HCT-116 [11]) | Activity (HCT-116 [12]) | Activity (HCT-116 [13]) | Activity (HCT-116 [14]) | Activity (HCT-116 [15]) | Activity (HCT-116 [16]) | Activity (HCT-116 [17]) | Activity (HCT-116 [18]) | Activity (HCT-116 [19]) | Activity (HCT-116 [20]) | Activity (HCT-116 [21]) | Activity (HCT-116 [22])

CC[C@@]1(O)C(=O)OCc2c1cc1n(c2=O)Cc2c-1nc1cc3c(cc1c2-c1cc(OC)cc(OC)c1)OCO3
active: Activity (PDX14244 [23]) | Activity (PDX14244 [24]) | Topoisomerase 1 inhibition [25] | Activity (HCT-116 [1]) | Activity (HCT-116 [2]) | Activity (HCT-116 [3]) | Activity (HCT-116 [4]) | Activity (HCT-116 [5]) | Activity (HCT-116 [6]) | Activity (HCT-116 [7]) | Activity (HCT-116 [8]) | Activity (HCT-116 [11]) | Activity (HCT-116 [12]) | Activity (HCT-116 [13]) | Activity (HCT-116 [14]) | Activity (HCT-116 [16]) | Activity (HCT-116 [17]) | Activity (HCT-116 [18]) | Activity (HCT-116 [19]) | Activity (HCT-116 [20]) | Activity (HCT-116 [21]) | Activity (HCT-116 [22])
